According to ChEMBL document CHEMBL1759924, “Natural products-based insecticidal agents 9. Design, semisynthesis and insecticidal activity of 28-acyloxy derivatives of toosendanin against Mythimna separata Walker in vivo” (2011):
Calls of active or inactive are those of the source. The calls are words filed in the database; no cut-off is given here.

Assays:
Mythimna separata [1] = test: Insecticidal activity against Mythimna separata Walker assessed as mortality rate at 1 mg/mL after 35 days by leaf dipping method; assay type: functional
Mythimna separata [2] = test: Insecticidal activity against Mythimna separata Walker assessed as mortality rate at 1 mg/mL after 20 days by leaf dipping method; assay type: functional
Mythimna separata [3] = test: Insecticidal activity against Mythimna separata assessed as slim and wrinkled body during larval period upto 48 hrs; assay type: functional, organism-based
Mythimna separata [4] = test: Insecticidal activity against Mythimna separata larvae assessed as malformed pupae during pupation period at day 19; assay type: functional, organism-based
Mythimna separata [5] = test: Insecticidal activity against Mythimna separata Walker assessed as mortality at 1 mg/mL by leaf dipping method; assay type: functional, organism-based; conditions: TDE = time-dependent effect
Mythimna separata [6] = test: Insecticidal activity against Mythimna separata Walker assessed as mortality rate at 1 mg/mL after 10 days by leaf dipping method; assay type: functional
Mythimna separata [7] = test: Insecticidal activity against Mythimna separata assessed as malformed moths with imperfect wings at day 27; assay type: functional, organism-based

Structure (SMILES) | Activity (Mythimna separata [1]) [%] | Activity (Mythimna separata [2]) [%] | Activity (Mythimna separata [3]) | Activity (Mythimna separata [4]) | Activity (Mythimna separata [5]) | Activity (Mythimna separata [6]) [%] | Activity (Mythimna separata [7])
CC(=O)O[C@H]1OC[C@@]23[C@H]4C(=O)[C@H](OC(C)=O)[C@@]5(C)C(c6ccoc6)C[C@H]6O[C@]65[C@]4(C)[C@H](O)C[C@H]2[C@]1(C)[C@H](OC(C)=O)C[C@@H]3O (single isomer, unassigned) | 50 | 26.9 | Active | Active | tde | 24.1 | 
CCC(=O)O[C@H]1OC[C@@]23[C@H]4C(=O)[C@H](OC(C)=O)[C@@]5(C)C(c6ccoc6)C[C@H]6O[C@]65[C@]4(C)[C@H](O)C[C@H]2[C@]1(C)[C@H](OC(C)=O)C[C@@H]3O (single isomer, unassigned) | 53.9 | 30.8 | Active |  | tde | 24.1 | 
CCCC(=O)O[C@H]1OC[C@@]23[C@H]4C(=O)[C@H](OC(C)=O)[C@@]5(C)C(c6ccoc6)C[C@H]6O[C@]65[C@]4(C)[C@H](O)C[C@H]2[C@]1(C)[C@H](OC(C)=O)C[C@@H]3O (single isomer, unassigned) | 73.1 | 42.3 |  | Active | tde | 31 | 
CC(=O)O[C@@H]1C[C@H](O)[C@@]23CO[C@H](OC(=O)c4ccccc4)[C@]1(C)[C@@H]2C[C@@H](O)[C@]1(C)[C@@H]3C(=O)[C@H](OC(C)=O)[C@@]2(C)C(c3ccoc3)C[C@H]3O[C@@]312 (single isomer, unassigned) | 46.2 | 23.1 |  |  | tde | 20.7 | Active
CC(=O)O[C@@H]1C[C@H](O)[C@@]23CO[C@H](OC(=O)c4ccc(Cl)cc4)[C@]1(C)[C@@H]2C[C@@H](O)[C@]1(C)[C@@H]3C(=O)[C@H](OC(C)=O)[C@@]2(C)C(c3ccoc3)C[C@H]3O[C@@]312 (single isomer, unassigned) | 50 | 26.9 | Active | Active | tde | 20.7 | 
CC(=O)O[C@@H]1C[C@H](O)[C@@]23CO[C@H](OC(=O)c4cccc(Cl)c4)[C@]1(C)[C@@H]2C[C@@H](O)[C@]1(C)[C@@H]3C(=O)[C@H](OC(C)=O)[C@@]2(C)C(c3ccoc3)C[C@H]3O[C@@]312 (single isomer, unassigned) | 46.2 | 34.6 |  |  | tde | 27.6 | Active
CC(=O)O[C@@H]1C[C@H](O)[C@@]23CO[C@H](OC(=O)c4ccccc4Cl)[C@]1(C)[C@@H]2C[C@@H](O)[C@]1(C)[C@@H]3C(=O)[C@H](OC(C)=O)[C@@]2(C)C(c3ccoc3)C[C@H]3O[C@@]312 (single isomer, unassigned) | 38.5 | 23.1 | Active |  | tde | 20.7 | Active
COc1ccc(C(=O)O[C@H]2OC[C@@]34[C@H]5C(=O)[C@H](OC(C)=O)[C@@]6(C)C(c7ccoc7)C[C@H]7O[C@]76[C@]5(C)[C@H](O)C[C@H]3[C@]2(C)[C@H](OC(C)=O)C[C@@H]4O)cc1 (single isomer, unassigned) | 42.3 | 26.9 |  |  | tde | 20.7 | 
CC(=O)O[C@@H]1C[C@H](O)[C@@]23CO[C@H](OC(=O)c4ccc([N+](=O)[O-])cc4)[C@]1(C)[C@@H]2C[C@@H](O)[C@]1(C)[C@@H]3C(=O)[C@H](OC(C)=O)[C@@]2(C)C(c3ccoc3)C[C@H]3O[C@@]312 (single isomer, unassigned) | 42.3 | 26.9 |  |  | tde | 24.2 | Active
CC(=O)O[C@@H]1C[C@H](O)[C@@]23CO[C@H](OC(=O)/C=C/c4ccccc4)[C@]1(C)[C@@H]2C[C@@H](O)[C@]1(C)[C@@H]3C(=O)[C@H](OC(C)=O)[C@@]2(C)C(c3ccoc3)C[C@H]3O[C@@]312 (single isomer, unassigned) | 61.5 | 38.5 |  | Active | tde | 20.7 | 
CC(=O)O[C@@H]1C[C@H](O)[C@@]23CO[C@H](OC(=O)CCc4ccccc4)[C@]1(C)[C@@H]2C[C@@H](O)[C@]1(C)[C@@H]3C(=O)[C@H](OC(C)=O)[C@@]2(C)C(c3ccoc3)C[C@H]3O[C@@]312 (single isomer, unassigned) | 53.9 | 30.8 |  |  | tde | 20.7 | Active
CC(=O)O[C@@H]1C[C@H](O)[C@@]23CO[C@H](OC(=O)Cc4ccccc4)[C@]1(C)[C@@H]2C[C@@H](O)[C@]1(C)[C@@H]3C(=O)[C@H](OC(C)=O)[C@@]2(C)C(c3ccoc3)C[C@H]3O[C@@]312 (single isomer, unassigned) | 42.3 | 26.9 |  |  | tde | 24.1 | 
CC(=O)O[C@@H]1C[C@H](O)[C@@]23CO[C@@H](O)[C@]1(C)[C@@H]2C[C@@H](O)[C@]1(C)[C@@H]3C(=O)[C@H](OC(C)=O)[C@@]2(C)[C@H](c3ccoc3)C[C@H]3O[C@]321 [TOOSENDANIN] | 50 | 30.8 |  |  | tde | 24.1 | 
